The values that follow come from patent US9302014B2, “Cell-penetrating peptides having a central hydrophobic domain” (Medical Research Council, priority 2011, dated 2016).

The nature of data set [1]: Serum stability of Pip-PMO conjugates in 100% mouse serum (HPLC, MALDI-TOF). In kind it is in vitro ADME. The following applies: 37° C. The protocol: Serum stability may be measured by adding an aliquot of Pip-PMO (10 nmoles) to 100% mouse serum (100 μL) and incubating at 37° C. for 120 or 240 min. Each reaction is diluted with IM guanidinium-HCl solution (300 μL) and ice-cold acetonitrile (600 μL). Samples are mixed and kept at −20° C., and the precipitated serum proteins separated by centrifugation (13000 rpm, 5 min). After centrifugation, the supernatant is collected, lyophilized and the residue dissolved in water for analysis for peptide degradation by MALDI-TOF mass spectrometry and by reversed phase HPLC. HPLC conditions are: Column, C18 reversed-phase (250×4.6 mm); Solvent A, 0.1% TFA, Solvent B, 90% Acetonitrile, 10% solvent A; Gradient, 10%-50% solvent B in 25 minutes.
Serum stability was measured by adding an aliquot of Pip-PMO (10 nmoles) to 100% mouse serum (100 μL) and incubating at 37° C. for 120 or 240 min. Each reaction was diluted with IM guanidinium-HCl solution (300 μL) and ice-cold acetonitrile (600 μL). Samples were mixed and kept at −20° C., and the precipitated serum proteins separated by centrifugation (13000 rpm, 5 min). After centrifugation, the supernatant was collected, lyophilized and the residue dissolved in water for analysis for peptide degradation by MALDI-TOF mass spectrometry and by reversed phase HPLC. […]

The test system of data set [2] is dystrophin. The following applies: single 25 mg/kg administration; cited from earlier work.
Data set [3] has as its system dystrophin. Nature of the data set: Immunohistochemical staining and quantification of dystrophin in mdx mice after single IV injection. The settings on record: heart; mdx mice, single 12.5 mg/kg IV, 2 weeks; relative to laminin, normalised to C57BL10. Type of data set: in vivo. An excerpt: (§1) Given the potency of Pip5e-PMO in heart tissue, the aim of altering the sequence of the hydrophobic core (whilst maintaining the 5-aa length) was to identify peptides that might be more efficient at lower doses. These modifications included inversion of the hydrophobic region (Pip6a), substitution of tyrosine by isoleucine (Pip6b), substitution of glutamine in the Pip6a sequence by displacement of the arginine immediately flanking the core in the first arginine-rich flanking region (Pip6e), and a scrambled hydrophobic core sequence (Pip6f). All Pip6 peptide-PMO conjugates were administered to mdx mice as single 12.5 mg/kg intravenous injections via the tail vein and tissues were harvested 2 weeks later and assessed for activity at both RNA and protein levels.
Immunohistochemical staining quantification (FIGS. 34a, b) was performed as previously described [Malerba, A., et al., Chronic systemic therapy with low-dose morpholino oligomers ameliorates the pathology and normalizes locomotor behavior in mdx mice. Mol Ther, 2011. 19(2): p. 345-54; Arechavala-Gomeza, V., et al., Immunohistological intensity measurements as a tool to assess sarcolemma-associated protein expression. Neuropathol Appl Neurobiol, 2010. 36(4): p. 265-74.] and was achieved by taking 4 representative frames of the dystrophin staining and correlating this with laminin staining for each section (n=3) of the quadriceps, diaphragm and heart for each peptide-PMO treatment. Untreated mdx and treated mdx mice were normalised to C57BL10 mice. This method allows comparison of the staining intensity of dystrophin at the sarcolemma relative to laminin for each treatment group. Intensity ratios are normalised to C57BL10 samples and each region of interest at the sarcolemma (120 regions for each treatment group) is plotted on a scatter graph. […]
Transverse sections of tissue samples were cut (8 μm thick) for the examination of dystrophin expression. For dystrophin visualisation and quantification, sections were co-stained with rabbit-anti-dystrophin (Abcam) and rat anti-laminin (Sigma), and detected by goat-anti-rabbit IgG Alexa 594 and goat-anti-rat IgG 488 secondary antibodies respectively (Invitrogen). […] Quantitative immunohistochemistry was performed as previously described [Malerba, A., et al., Chronic systemic therapy with low-dose morpholino oligomers ameliorates the pathology and normalizes locomotor behavior in mdx mice. […] For quantification, 4 representative frames of the dystrophin and correlating laminin were taken for each section (n=3) of the quadriceps, diaphragm and heart for each treatment. […] The minimum and maximum fluorescence intensity for 120 regions were recorded for each treatment. […]

For data set [4], the system named is dystrophin exon 23. In words: RT-PCR and quantitative real time PCR of exon skipping in mdx mouse tissues. In kind it is in vivo, mdx mice. The following applies: diaphragm; single 12.5 mg/kg IV, 2 weeks.
Excerpt: as §1
The RTPCR representative images (FIG. 34d) illustrate high exon skipping efficiency in all tissues analysed. This is better shown by Real Time PCR (qRT-PCR) results for the quadriceps, diaphragm and heart (FIG. 34c). The delta 23 transcript is normalised against ‘total dystrophin’ for each muscle group (n=3). […] Western blots (FIG. 34e) were performed on the tissues of each mouse and were quantified against a 50% and 10% C57BL10 control.
Four and a half month old to 5½ month old mdx mice were used in these experiments (n=3). […]
A general note: Real-time PCR tracks product formation cycle by cycle.

For RXRRBRRXRILFQYRXRBRXRBC [Pip5e-PMO], the “stability in 100% mouse serum” value in data set [1] (120 min (2 h), HPLC and MALDI-TOF) was “unchanged Pip-PMO conjugate”. The “levels of PMO conjugated to fragments of peptide” value in data set [1] (100% mouse serum, 120 minutes) is given as “very similar to that for (RXRRBR)2XB-PMO”. The “dystrophin protein restoration in all muscle types, including heart” value in data set [2] is on record as “high levels”. Besides, in data set [3], the “percent recovery score (% RS), dystrophin immunostaining” value was 17.32%. Also, the “Δ23 exon skipping by qRT-PCR” value in data set [4] is reported as “highest exon skipping”.
